Experimental data reported in patent US4584377A, “Novel Fredericamycin A derivatives” (SS Pharmaceutical Co., Ltd., priority 1983, dated 1986).

Key:
various microorganisms [1] = conditions: prior art statement; cited from earlier work
physchem = format: physicochemical; conditions: 10 μg/ml in dimethylsulfoxide/physiological saline
Experimental: The stability of some Fredericamycin A derivatives and Fredericamycin A in their aqueous solutions were tested in accordance with the following procedures.
The test compounds were individually dissolved in dimethylsulfoxide, followed by dilution of the resulting solutions with physiological saline to adjust the final concentrations of the test compounds and Fredericamycin to 10 μg/ml respectively. The thus-prepared test solutions were then subjected to high performance liquid chromatography after predetermined time intervals to measure the percentage remainders of the test compounds.

various microorganisms [2] = assay: Antibacterial activities against the tested microorganisms (general statement); format: cell-based; conditions: for each of the tested microorganism (Table 1)
Experimental: It should be noted that the MIC of Fredericamycin A was 100 μg/ml or more for each of the tested microorganism.
Culture conditions for the test microorganisms:
Inoculum size: 1×10^6 cells/ml. In the case of bacteria, each bacterium was cultured at 37° C. for 18-20 hours on a Mueller-Hinton agar (product of Difco Corp.). In the case of yeasts and molds, each microorganism was cultured at 28° C. for 120 hours on a glucose-peptone agar.

[3] = prior art statement; cited from earlier work
[4] = test system: Helmintsporium sesamum IAM 5012; assay: MIC, yeasts and molds (agar culture); format: cell-based; conditions: 28° C., 120 hours, glucose-peptone agar, read-out: Minimum inhibitory concentration MIC
[5] = test system: Aspergillus oryzae IFM 4014; assay: MIC, yeasts and molds (agar culture); format: cell-based; conditions: IFM4014, 28° C., 120 hours, glucose-peptone agar, read-out: Minimum inhibitory concentration MIC
[6] = test system: Streptococcus faecalis IFO 12964; assay: MIC, antibacterial activity (agar culture); format: cell-based; conditions: Enterococcus faecalis, IFO12964, 37° C., 18-20 hours, Mueller-Hinton agar, read-out: Minimum inhibitory concentration MIC
Seratia marcescens NHL = assay: MIC, antibacterial activity (agar culture); format: cell-based; conditions: 37° C., 18-20 hours, Mueller-Hinton agar, read-out: Minimum inhibitory concentration MIC
[7] = test system: Staphylococcus aureus FDA 209P; assay: MIC, antibacterial activity (agar culture); format: cell-based; conditions: FDA209P, 37° C., 18-20 hours, Mueller-Hinton agar, read-out: Minimum inhibitory concentration MIC
[8] = test system: Debaryomyces Kloecheri IFO 0015; assay: MIC, yeasts and molds (agar culture); format: cell-based; conditions: IFO0015, 28° C., 120 hours, glucose-peptone agar, read-out: Minimum inhibitory concentration MIC
Meth-A fibrosarcoma = assay: Antitumor effect, survival of tumor-inoculated mice; format: in vivo, CDF1 mice; conditions: intraperitoneally, once a day for 10 days
Experimental: Antitumor effects of some Fredericamycin A derivatives against Ehrlich carcinoma, Meth-A fibrosarcoma and mouse leukemia P-388 were tested in accordance with the following procedures. Antitumor effects against Ehrlich carcinoma and Meth-A fibrosarcoma are expressed by percentage of mean survival time of test and control animals. Antitumor effects against P-388 are expressed by percentage of median survival time of test and control animals.
(ii) Meth-A fibrosarcoma and mouse leukemia P-388:
1×10^6 tumor cells were inoculated to CDF1 mice (.male., Charles River Japan Inc.) intraperitoneally. Each tested compound was given intraperitoneally once a day for 10 days from 1 day after tumor inoculation.

Escherichia coli 0-1 = assay: MIC, antibacterial activity (agar culture); format: cell-based; conditions: 01, 37° C., 18-20 hours, Mueller-Hinton agar, read-out: Minimum inhibitory concentration MIC
[9] = test system: Microsporum gypseum IFO 8231; assay: MIC, yeasts and molds (agar culture); format: cell-based; conditions: Nannizzia gypsea, IFO8231, 28° C., 120 hours, glucose-peptone agar, read-out: Minimum inhibitory concentration MIC
[10] = test system: Penicillium chrysogenum ATCC 6010; assay: MIC, yeasts and molds (agar culture); format: cell-based; conditions: ATCC6010, 28° C., 120 hours, glucose-peptone agar, read-out: Minimum inhibitory concentration MIC
Ehrlich carcinoma = assay: Antitumor effect, survival of tumor-inoculated mice; format: in vivo, ICR mice; conditions: Mus musculus, ip, 240 h, intraperitoneally, once a day for 10 days, read-out: percentage of mean survival time of test and control animals
Saccharomyces ruxii 6507 = assay: MIC, yeasts and molds (agar culture); format: cell-based; conditions: 28° C., 120 hours, glucose-peptone agar, read-out: Minimum inhibitory concentration MIC
[11] = test system: Cladosporium fulvum IAM 5006; assay: MIC, yeasts and molds (agar culture); format: cell-based; conditions: Fulvia fulva, IAM5006, 28° C., 120 hours, glucose-peptone agar, read-out: Minimum inhibitory concentration MIC
[12] = test system: Pseudomonas aeruginosa IFO 13736; assay: MIC, antibacterial activity (agar culture); format: cell-based; conditions: IFO13736, 37° C., 18-20 hours, Mueller-Hinton agar, read-out: Minimum inhibitory concentration MIC
Proteus vulgaris OXK = assay: MIC, antibacterial activity (agar culture); format: cell-based; conditions: 37° C., 18-20 hours, Mueller-Hinton agar, read-out: Minimum inhibitory concentration MIC
[13] = test system: Klebsiella pneumoniae ATCC 10031; assay: MIC, antibacterial activity (agar culture); format: cell-based; conditions: ATCC10031, 37° C., 18-20 hours, Mueller-Hinton agar, read-out: Minimum inhibitory concentration MIC
[14] = test system: Staphylococcus epidermidis ATCC 12228; assay: MIC, antibacterial activity (agar culture); format: cell-based; conditions: ATCC12228, 37° C., 18-20 hours, Mueller-Hinton agar, read-out: Minimum inhibitory concentration MIC
[15] = test system: Bacillus subtilis ATCC 6633; assay: MIC, antibacterial activity (agar culture); format: cell-based; conditions: ATCC6633, 37° C., 18-20 hours, Mueller-Hinton agar, read-out: Minimum inhibitory concentration MIC
[16] = test system: Aspergillus niger ATCC 9642; assay: MIC, yeasts and molds (agar culture); format: cell-based; conditions: ATCC9642, 28° C., 120 hours, glucose-peptone agar, read-out: Minimum inhibitory concentration MIC
[17] = test system: Trichophyton mentagrophytes QM 248; assay: MIC, yeasts and molds (agar culture); format: cell-based; conditions: QM248, 28° C., 120 hours, glucose-peptone agar, read-out: Minimum inhibitory concentration MIC
[18] = test system: Candida albicans NHL 4019; assay: MIC, yeasts and molds (agar culture); format: cell-based; conditions: NHL4019, 28° C., 120 hours, glucose-peptone agar, read-out: Minimum inhibitory concentration MIC
Salmonella typhi TD = assay: MIC, antibacterial activity (agar culture); format: cell-based; conditions: Salmonella enterica, read-out: Minimum inhibitory concentration MIC
[19] = test system: Piricularia oryzae IAM 5016; assay: microbe, parasite or virus in culture; format: cell-based; conditions: 120 h; read-out: Minimum inhibitory concentration MIC
[20] = test system: Fusarium moniliforme IAM 5062; assay: MIC, yeasts and molds (agar culture); format: cell-based; conditions: Fusarium verticillioides, IAM5062, 28° C., 120 hours, glucose-peptone agar, read-out: Minimum inhibitory concentration MIC
Shigella flexneri 2b = assay: MIC, antibacterial activity (agar culture); format: cell-based; conditions: 37° C., 18-20 hours, Mueller-Hinton agar, read-out: Minimum inhibitory concentration MIC
[21] = test system: Gibberella fujikuroi IAM 8046; assay: MIC, yeasts and molds (agar culture); format: cell-based; conditions: Fusarium fujikuroi, IAM8046, 28° C., 120 hours, glucose-peptone agar, read-out: Minimum inhibitory concentration MIC
[22] = test system: Micrococcus lysodeikticus IFO 3333; assay: MIC, antibacterial activity (agar culture); format: cell-based; conditions: Micrococcus luteus, IFO3333, 37° C., 18-20 hours, Mueller-Hinton agar, read-out: Minimum inhibitory concentration MIC
[23] = test system: Staphylococcus aureus TERAGIMA; assay: MIC, antibacterial activity (agar culture); format: cell-based; conditions: 37° C., 18-20 hours, Mueller-Hinton agar, read-out: Minimum inhibitory concentration MIC
Sarcina lutea ATCC 9341 = assay: MIC, antibacterial activity (agar culture); format: cell-based; conditions: Micrococcus luteus, ATCC9341, 37° C., 18-20 hours, Mueller-Hinton agar, read-out: Minimum inhibitory concentration MIC
[24] = test system: Staphylococcus aureus Smith; assay: MIC, antibacterial activity (agar culture); format: cell-based; conditions: 37° C., 18-20 hours, Mueller-Hinton agar, read-out: Minimum inhibitory concentration MIC

For `C/C=C/C=C/c1cc2cc3c(c(O)c2c(=O)[nH]1)C1(CC3)C(=O)c2c(O)c3c(c(O)c2C1=O)C(=O)C(OC)=CC3=O` (stereo not shown) [Fredericamycin A], the antibacterial activities (various microorganisms [1]) is given as “weak”, the Percentage remainder (physchem; 0 hr.) is given as 100% and the remaining at 3 h (physchem; 3 hrs., read-out: Percentage remainder) is given as 78.9%. The remaining at 6 h (physchem; 6 hrs., read-out: Percentage remainder) was 64%, the remaining at 24 h (physchem; 24 hrs., read-out: Percentage remainder) was 38.1% and the remaining at 48 h (physchem; 48 hrs., read-out: Percentage remainder) was 27.3%. The remaining at 72 h (physchem; 72 hrs., read-out: Percentage remainder) was 18.4%, the MIC (various microorganisms [2]) was ≥ 100 µg/mL and the stability [3] was “low”.
Molecule `C/C=C/C=C/c1cc2cc3c(c(O)c2c(=O)[nH]1)C1(CC3)C(=O)c2c(OC(C)=O)c3c(c(OC(C)=O)c2C1=O)C(=O)C(OC)=CC3=O` (stereo not shown) [Compound 1, Fredericamycin A diacetate] has an MIC [4] of 0.78 µg/mL, an MIC [5] of 1.56 µg/mL and an MIC [6] of 1.56 µg/mL. The MIC (Seratia marcescens NHL) was > 100 µg/mL, the MIC [7] was 50 µg/mL and the MIC [8] was 100 µg/mL. The “percentage of mean survival time of test and control animals” value (“percentage … of test and control animals” below) (Meth-A fibrosarcoma; 0.25 mg/kg/day) was 127%, the “percentage … of test and control animals” value (Meth-A fibrosarcoma; 0.5 mg/kg/day) was 191% and the “percentage … of test and control animals” value (Meth-A fibrosarcoma; 1.0 mg/kg/day) was 242%. For the same molecule, the MIC (Escherichia coli 0-1) was > 100 µg/mL, the MIC [9] was 0.39 µg/mL and the MIC [10] was 0.78 µg/mL. It also gave a response vs control in vivo at 0.125 mg/kg/day (Ehrlich carcinoma; 0.125 mg/kg/day) of 147%, a response vs control in vivo at 0.25 mg/kg/day (Ehrlich carcinoma; 0.25 mg/kg/day) of 267% and a response vs control in vivo at 0.5 mg/kg/day (Ehrlich carcinoma; 0.5 mg/kg/day) of 295%. The MIC (Saccharomyces ruxii 6507) was 0.39 µg/mL, the MIC [11] was 1.56 µg/mL and the MIC [12] was > 100 µg/mL. The MIC (Proteus vulgaris OXK) was > 100 µg/mL, the MIC [13] was > 100 µg/mL and the MIC [14] was 0.1 µg/mL. It also gave an MIC [15] of 0.39 µg/mL, an MIC [16] of 3.12 µg/mL and an MIC [17] of 0.39 µg/mL. The MIC [18] was > 100 µg/mL, the MIC (Salmonella typhi TD) was > 100 µg/mL and the MIC [19] was 0.05 µg/mL. For the same molecule, the MIC [20] was 50 µg/mL, the MIC (Shigella flexneri 2b) was > 100 µg/mL and the MIC [21] was > 100 µg/mL. For the same molecule, the MIC [22] was 0.78 µg/mL, the MIC [23] was 12.5 µg/mL and the MIC (Sarcina lutea ATCC 9341) was 0.39 µg/mL. The MIC [24] was 6.25 µg/mL.
